# Experimental data: PubChem BioAssay AID179 (DTP/NCI, 2004)
# pEC50, pIC50: −log10 of the molar value. Calls of active or inactive are those of the source.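 How the source made its calls: active means compounds giving half or more protection of infected cells from virus-caused growth loss, again on retest; inactive means the rest.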 Where a SMILES comes first, the peptide text is derived from it. The star is where a group is joined. Cbz = O=C(OCc1ccccc1)*
# Tested on: CEM cells HIV-1 protection, formazan growth assay
# Test: NCI AIDS Antiviral Assay
# Conditions: for pIC50: measured here: growth of uninfected CEM cells
# Outline: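 CEM (human) cells, HIV-1 infected vs uninfected, 5-point dosing, formazan growth read-out. Retest threshold 50% protection.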
Structure (SMILES),pEC50,pIC50,outcome
[N-]=[N+]=NC1CC(n2cc(COCC(F)(F)F)c(=O)[nH]c2=O)OC1CO (stereo not given),5.24,3.60,
COc1c(C)c2c(c(C)c1Cl)Oc1c(C=O)c(O)c(Cl)c(C)c1C(=O)O2,< 4.74,< 4.74,
c1ccc2c(c1)[nH]c1c2nc2ncccn21,,,inactive
COc1ccccc1OCc1nnc(SCC(=O)O)n1-c1ccccc1,< 3.17,< 3.17,
Cc1ccc(C)c2c1OC(=O)C1CNCOC21 (stereo not given),< 4.30,< 4.30,
CCOC(=O)Cn1c(=O)cc(C=O)c2ccccc21,< 3.70,4.81,
COc1cc(C[C@H]2C(=O)OC[C@@H]2C(=O)c2ccc(OC(C)C)c(O)c2)cc(OC)c1O,< 5.70,6.31,
CCn1c(SC(C)C(=O)c2c(C)n(C)n(-c3ccccc3)c2=O)nc2ccccc2c1=O (stereo not given),< 3.95,< 3.95,
CCC1=CCN(c2cc(C)ccn2)OC1c1ccccc1 (stereo not given),< 4.45,< 4.45,
CCOC(=O)C1C(=O)[C@H](C(=O)OC)C2CCCC3CCCC1N32 (stereo not given in full),< 3.70,< 3.70,
CC1(C)N=C(C(N)=O)c2ncn(CCO)c2N1,< 3.70,< 3.70,
COc1c2occc2c(S(=O)(=O)O)c2ccc(=O)oc12,< 3.52,< 3.52,
CNC(=O)CN(CC(N)=O)C(=O)NC,< 3.05,< 3.05,
CCC(C)C(CC)(C(=O)O)C(=O)O (stereo not given),< 2.88,3.42,
O=C(/C=C\c1ccccc1)Oc1ccc(/C=C2\CCCCC2=O)cc1,< 3.70,5.15,
COc1ccc(C(OCC2OC(n3ccc(Oc4c(F)c(F)c(F)c(F)c4F)nc3=O)CC2OP(OCCC#N)N(C(C)C)C(C)C)(c2ccccc2)c2ccc(OC)cc2)cc1 (stereo not given),< 3.70,4.05,
NC(N)=N/N=C\c1ccc(C2CCNCC2)cc1,< 3.70,< 3.70,
CCCCCC1C(=O)N2C=C(c3ccccc3)c3ccccc3N2C1=O (stereo not given),,,inactive
CCOC(=O)[C@@]12C(C)=CC(=O)O[C@]1(C)C1C(=O)NC(=O)C12 (stereo not given in full),< 3.07,< 3.07,
O=C1/C(=C/c2ccc(F)cc2)CNC/C1=C\c1ccc(F)cc1,< 4.82,6.54,
CSC(SC)=C(C#N)C(=O)Nc1ccc(C)cc1,< 3.70,5.44,
N#Cc1c(O)c2ccccc2[nH]c1=O,< 3.70,< 3.70,

Structure (SMILES),pEC50,pIC50,outcome
Cc1cn(C2CC(O[Si](C)(C)C(C)(C)C)C(CNC(=O)N(O)C3CC(n4cc(C)c(=O)[nH]c4=O)OC3CO[Si](C)(C)C(C)(C)C)O2)c(=O)[nH]c1=O (stereo not given),< 3.70,5.68,
CCCCCCCCCC/C=C/CC(=O)SCCNC(=O)CCNC(=O)[C@@H](O)C(C)(C)COP(=O)(O)OP(=O)(O)OCC1OC(n2cnc3c(N)ncnc32)C(O)C1OP(=O)(O)O (stereo not given in full),,,inactive
C[C@]12CCC3[C@@H](C[C@H]4OC(=O)[C@@]35CCC(=O)C=C45)C1CCC2=O (stereo not given in full),,,inactive
CN1CCN(C(=O)CCN2c3ccccc3Sc3ccccc32)CC1,< 3.29,3.93,
C=CCOCC1C2CCC3(OCCO3)C21 (stereo not given),< 3.70,3.83,
COc1ccc(-c2onc3ccc(Br)cc23)cc1,< 4.63,< 4.63,
COc1cc(NCCCCCN=C(N)NC#N)c2ncccc2c1,< 4.10,4.30,
CC1CC(OP(=O)(OCc2ccccc2)OCc2ccccc2)[C@@H](OCc2ccccc2)C(OCc2ccccc2)C1OCc1ccccc1 (stereo not given in full),< 4.00,< 4.00,
O=C1C=C(N2CCOCC2)C(=O)c2nccnc21,< 4.81,4.99,
COc1cc(C2C3=C(COC3=O)Oc3cc4c(cc32)OCO4)cc(OC)c1O (stereo not given),< 5.70,7.25,
CCOC(=O)c1cc(I)c(-c2cc(C)no2)n1C,< 3.70,4.43,
CCOc1ccc(N=Nc2c(-c3ccccc3)nn(C(=O)CC(=O)Nc3cccc(C)c3)c2-c2ccccc2)cc1,< 4.32,< 4.32,
NCCC(=O)NCS(=O)(=O)O,< 3.70,< 3.70,
ONC1=Nc2cc(Cl)ccc2C(=S)N2CSCC12 (stereo not given),< 3.70,< 3.70,
CC(C)(CC#N)c1cc(CC(C)(C)c2cc(CC(C)(C)c3cc(C(C)(C)C4(C)OCCO4)no3)no2)no1,< 3.70,4.22,
CCC(=O)SC1CC2=CC(=O)CCC2(C)C2CCC3(C)C(O)CCC3C12 (stereo not given),< 3.70,< 3.70,
CN(C)c1ccc(SSc2ccc(N(C)C)cc2)cc1,< 3.70,4.85,
CCCCCOC(=O)c1ccc(NC(=O)CN(CC)CC)cc1,< 3.70,4.26,
CCCCCCCCCCCc1c(O)c(O)cc2nc3ccc(SCCC)cc3nc12,< 4.79,5.03,
CC(=O)c1cccc(C)c1C(=O)O,,,inactive
CC(C)OC(=S)SSSC(=S)OC(C)C,< 3.70,4.72,
CS(=O)(=O)OCCNC[C@@H](O)[C@@H](O)CNCCOS(C)(=O)=O,< 3.16,5.86,

Structure (SMILES),pEC50,pIC50,outcome
CCOC(=O)[C@@]12C(C)=CC(=O)O[C@]1(C)C[C@H]2C#N,< 3.00,< 3.00,
COc1ccc(C2OC(N)=C(C#N)C3=C2CCCC3C)cc1OC (stereo not given),< 3.70,< 3.70,
CC(C)C(NC(=O)C1CCCN1C(=O)OCc1ccccc1)C(=O)O (stereo not drawn) (Cbz-Pro-Val-OH; configuration not given here),< 3.14,< 3.14,
Cc1cc(S(=O)(=O)Nc2nnc3c4ccccc4cnn23)c(S)cc1Cl,4.25,2.93,
CSCC1Cc2c(cc3c(c2O)C(=O)c2ccccc2C3=O)O1 (stereo not given),,,inactive
O=C(NCCCCCCNC(=O)NS(=O)(=O)c1ccccc1)NS(=O)(=O)c1ccccc1,< 3.70,< 3.70,
CCNC(=O)COc1cc2c(O)c3c(O)c(C)c4c(c13)C(=O)C(C)(O/C=C/C(OC)C(C)C(OC(C)=O)C(C)C(O)C(C)C(O)C(C)/C=C/C=C(\C)C(=O)N2)O4 (stereo not given),< 3.70,4.08,
NCCCNOCCCN,< 3.70,< 3.70,
NC(=O)CNC(=O)CCCCC1CCSS1 (stereo not given),4.29,< 3.70,
Cc1c2ccn(O)cc2c(C)c2c1nc1ccccc12,< 3.70,5.74,
CCOC(=O)C(=Cc1ccc(C(=O)OC)cc1)C(=O)OCC,< 4.07,4.90,
CC(=O)c1ccc2c3ccccc3c3cccc4sc1c2c43,< 4.65,< 4.65,
COCC(=O)[C@]1(O)Cc2c(O)c3c(c(O)c2[C@@H](OC2CC(N)C(O)C(C)O2)C1)C(=O)c1c(OC)cccc1C3=O (stereo not given in full),< 6.70,7.20,
COc1ccc(C(N)=O)cc1N=NN(C)C,< 2.95,3.30,
CC(C)(C)OC(=O)CC(NC(=O)OCc1ccccc1)NC(=O)OC(C)(C)C (stereo not given),< 3.70,< 3.70,
O=P1(Oc2ccccc2)NCc2ncccc2O1 (stereo not given),< 3.70,< 3.70,
O=C(O)C1(C(=O)O)CC23CCC2(COC3)C1 (stereo not given),,,inactive
COc1ccc2oc(=O)c(CC=C(C)C)c(O)c2c1C,< 3.70,< 4.00,
CC(C)=C/C=C1/CS(=O)(=O)C=C1C,< 3.70,3.87,
CN1C(=O)CN(NC(=O)C2=C(O)c3ccc(Br)cc3S(=O)(=O)N2)C1=S,< 3.70,4.29,
CC1C(c2ccccc2O)c2cc3c(cc2OC1N1CCCC1)OCO3 (stereo not given),,,inactive
N#CC(C#N)=Cc1ccccc1C(=O)O,< 3.70,3.96,

Structure (SMILES),pEC50,pIC50,outcome
CC(=O)Oc1cc(C)c(OC(C)=O)c2c1[C@H]1CC[C@]3(C)[C@@H](OC(C)=O)CC[C@H]3[C@@H]1CC2,< 3.70,4.78,
Nc1c(N2CCCCC2)c(=O)nc2[nH]/c(=C\c3ccco3)c(=O)n12,< 3.70,3.80,
CCO[C@H]1O[C@@H]2OC3(C)CCC4[C@H](C)CCC([C@H]1C)[C@]42OO3 (stereo not given in full),< 3.70,4.45,
C(/Cc1ccc2c(c1)OCO2)=N\NC1=NCCN1,< 3.70,3.93,
NC(N)=NS(=O)(=O)c1ccc(NC(=O)c2ccc3nc4ccccc4c(Nc4ccc(S(N)(=O)=O)cc4)c3c2)cc1,< 3.70,3.83,
O=C1CC[C@H]2[C@@H]3N1c1ccccc1[C@@]31CCN3C/C(=C/CBr)[C@@H]2C[C@H]31,< 4.12,< 4.12,
O=C1CC(c2c[nH]c3ccccc23)C(=O)N1c1ccccc1 (stereo not given),,,inactive
COC1OC(CS)C(N)C1OS(C)(=O)=O (stereo not given),< 3.70,3.81,
Cn1c(=O)c2c(=O)c(=O)[nH][nH]c2n(C)c1=O,< 3.70,< 3.70,
CCSC(=O)n1ncc2cc(Cl)ccc21,< 3.70,4.52,
Cc1nc(-c2cccnc2)sc1C(=O)/C=C/c1cccc([N+](=O)[O-])c1,< 4.13,< 4.13,
O=C1c2cc3c(cc2CC12Cc1ccccc1C2)CCC3,< 3.70,4.55,
CCCc1cc(=O)oc2c3c(c4c(c12)OC(C)(C)[C@@H](O)[C@@H]4O)O[C@@H](C)[C@H](C)[C@@H]3O,< 3.70,4.05,
Cc1ccc(C=C(C(=O)O)C(=O)O)o1,3.84,< 3.70,
CCOC(=O)C1(C)CCCc2sc(N)c(C#N)c21 (stereo not given),< 3.70,< 3.70,
COC(=O)c1c(-c2ccccc2)c2sc3ccccc3n2c1N,< 3.70,< 3.70,
O=C1CCc2ccc3c(c21)CC1(Cc2ccccc2C1)C3,< 3.70,< 3.70,
COc1cc(/C=C/c2csnn2)cc(OC)c1OC,< 3.33,3.93,
Cc1ccc(Nc2nc3c(s2)C(=O)c2ccccc2C3=O)c(C)c1,< 4.52,4.80,
C/C1=C\[C@H](C)C[C@H](C)OC(=O)C[C@H](c2ccc(O)cc2)NC(=O)[C@@H](Cc2c(Br)[nH]c3ccccc23)N(C)C(=O)[C@H](C)NC(=O)[C@@H](C)C1,< 5.70,7.52,
C=C[C@]1(O[Si](C)(C)C)C[C@@]2(C(=O)OCC)C(O)C(=O)N3CCc4cc(OC)c(OC)cc4[C@]312 (stereo not given in full),< 3.70,< 3.70,
